Experimental findings from patent publication US4308380A, “2-Lower alkyl-2 or 3-cephem-4-carboxylic acid derivatives” (Fujisawa Pharmaceutical Co., Ltd., priority 1973, dated 1981) are described below.

In brackets after ≈: the same amount, converted by molar mass. Counter-ions that a name gives are not always drawn. Like-named read-outs stand apart in the source and are kept apart here.

Format in all cases: cell-based
For assay [1], the system named is Staphylococcus aureus 206. The assay can be described thus: in vitro antimicrobial activity, two-fold agar plate dilution method, S. aureus 206. To be noted: Table 1, S. aureus 206, 37° C., 20 hours, read-out: minimum inhibitory concentration (MIC). As for the experimental part:
(§1) The in vitro tests of antimicrobial activity of the compared compounds were determined by the two-fold agar plate dilution method described as follows: […]

Assay [2] deals with Staphylococcus aureus 278. The assay can be described thus: in vitro antimicrobial activity, two-fold agar plate dilution method, S. aureus 278. To be noted: Table 1, S. aureus 278, 37° C., 20 hours, read-out: minimum inhibitory concentration (MIC). As for the experimental part: as §1
The test system of assay [3] is Staphylococcus aureus 209 P JC-1. The assay can be described thus: in vitro antimicrobial activity, two-fold agar-plate dilution method, S. aureus 209 P JC-1. As for the experimental part:
(§2) In vitro antimicrobial activity was determined by the two-fold agar-plate dilution method as described below.
(§3) One loopful of an overnight culture of each test strain in Trypticase-soy broth (10^8 viable cells per ml) was streaked on heart infusion agar (HI-agar) containing graded concentration of antibiotics, and the minimum inhibitory concentration (MIC) was expressed in terms of meg/ml after incubation at 37° C. for 20 hours.
(§4) The data in Table 1 below present a comparison between the 2-(C1 -C6 alkyl)-cephem compounds of the present invention and known cephem compounds structurally analogous to the present compounds, differing only by alkyl substitution in the 3-position. The in vitro tests of antimicrobial activity of the compared compounds were determined by the two-fold agar plate dilution method described as follows:
(§5) One loopful of an overnight culture of each test strain in Trypticase-soy broth (10^8 viable cells per ml) was streaked on heart infusion agar (HI sugar) containing graded concentration of antibiotics, and the minimum inhibitory concentration (MIC) was expressed in terms of mcg/ml after incubation at 37° C. for 20 hours.

Assay [4] deals with Staphylococcus aureus 277. As to the kind of experiment: in vitro antimicrobial activity, two-fold agar plate dilution method, S. aureus 277. To be noted: Table 1, S. aureus 277, 37° C., 20 hours, read-out: minimum inhibitory concentration (MIC). As for the experimental part:
as §1

For assay [5], the system named is Staphylococcus aureus 226. As to the kind of experiment: in vitro antimicrobial activity, two-fold agar plate dilution method, S. aureus 226. The following applies: Table 1, S. aureus 226, 37° C., 20 hours, read-out: minimum inhibitory concentration (MIC). As for the experimental part:
as §1

The test system of assay [6] is Staphylococcus aureus 213. As to the kind of experiment: in vitro antimicrobial activity, two-fold agar plate dilution method, S. aureus 213. To be noted: Table 1, S. aureus 213, 37° C., 20 hours, read-out: minimum inhibitory concentration (MIC). As for the experimental part:
as §1

In assay [7] the test system is Bacillus subtilis ATCC-6633. As to the kind of experiment: in vitro antimicrobial activity, two-fold agar-plate dilution method, B. subtilis ATCC-6633. As for the experimental part:
as §2, §3, §4, §5

[8] abbreviates: 209PJC1, Table 1, S. aureus 209 P JC-1, 37° C., 20 hours, read-out: minimum inhibitory concentration (MIC).
Where [9] appears, read: ATCC6633, Table 1, B. subtilis ATCC-6633, 37° C., 20 hours, read-out: minimum inhibitory concentration (MIC).
[10] abbreviates: S. aureus 209-P JC-1, 37° C., 20 hours, HI-agar, read-out: MIC.
Setting [11] is: ATCC6633, B. subtilis ATCC-6633, 37° C., 20 hours, HI-agar, read-out: MIC.

Consider `CC1=C(C(=O)O)N2C(=O)C(NC(=O)CC#N)[C@H]2SC1` (some centres unmarked) [cited compound (13), 3-Methyl-7-(2-cyanoacetamido)-3-cephem-4-carboxylic acid, reference compound], for which the MIC in assay [1] came to 6.25 µg/mL (≈ 22.2 µM); in assay [2], 12.5 µg/mL (≈ 44.4 µM); in assay [3] (setting [8]) it was 6.25 µg/mL (≈ 22.2 µM); in assay [4], 12.5 µg/mL (≈ 44.4 µM); in assay [5], 12.5 µg/mL (≈ 44.4 µM); in assay [6] it was 12.5 µg/mL (≈ 44.4 µM). Further, the MIC in assay [7] (setting [9]) was 3.13 µg/mL (≈ 11.1 µM).

Turning to `CC1C=C(C(=O)O)N2C(=O)C(NC(=O)Cc3cnsn3)[C@H]2S1` (some centres unmarked) [Applicants' compound (12), 2-Methyl-7-[2-(1,2,5-thiadiazol-3-yl)acetamido]-3-cephem-4-carboxylic acid], the MIC in assay [1] stood at 3.13 µg/mL (≈ 9.2 µM); in assay [2], 6.25 µg/mL (≈ 18.4 µM); in assay [3] (setting [8]), 3.13 µg/mL (≈ 9.2 µM); in assay [3] (setting [10]), 3.13 µg/mL (≈ 9.2 µM); in assay [4] it was 6.25 µg/mL (≈ 18.4 µM); in assay [5], 3.13 µg/mL (≈ 9.2 µM). In addition, the MIC in assay [6] is 6.25 µg/mL (≈ 18.4 µM); in assay [7] (setting [11]), 1.56 µg/mL (≈ 4.58 µM); in assay [7] (setting [9]), 1.56 µg/mL (≈ 4.58 µM).

As to `CC1C=C(C(=O)O)N2C(=O)C(NC(=O)C(C(=O)Oc3ccc4c(c3)CCC4)c3ccccc3)[C@H]2S1` (some centres unmarked) [Applicants' compound (3), 2-Methyl-7-[2-(5-indanyloxy)carbonyl-2-phenylacetamido]-3-cephem-4-carboxylic acid], the MIC in assay [1] was 0.39 µg/mL (≈ 0.792 µM); in assay [2], 0.39 µg/mL (≈ 0.792 µM); in assay [3] (setting [8]), 1.56 µg/mL (≈ 3.17 µM); in assay [3] (setting [10]), 1.56 µg/mL (≈ 3.17 µM); in assay [4], 0.78 µg/mL (≈ 1.58 µM); in assay [5] it was 0.2 µg/mL (≈ 0.406 µM). The figures for the MIC in assay [6], in assay [7] (setting [11]) and in assay [7] (setting [9]) were 0.39 µg/mL (≈ 0.792 µM), 6.25 µg/mL (≈ 12.7 µM) and 6.25 µg/mL (≈ 12.7 µM), respectively.

Consider `CC1C=C(C(=O)O)N2C(=O)C(NC(=O)Cc3cccc(Cl)c3)[C@H]2S1` (some centres unmarked) [Applicants' compound (6), 2-Methyl-7-[2-(3-chlorophenyl)acetamido]-3-cephem-4-carboxylic acid], for which the MIC in assay [1] amounted to 0.39 µg/mL (≈ 1.06 µM); in assay [2] it was 0.39 µg/mL (≈ 1.06 µM); in assay [3] (setting [8]), 0.1 µg/mL (≈ 0.273 µM); in assay [3] (setting [10]) it was 0.1 µg/mL (≈ 0.273 µM); in assay [4], 0.78 µg/mL (≈ 2.13 µM); in assay [5] it was 0.2 µg/mL (≈ 0.545 µM). Besides, the MIC in assay [6] came to 0.3 µg/mL (≈ 0.818 µM); in assay [7] (setting [11]), 0.2 µg/mL (≈ 0.545 µM); in assay [7] (setting [9]), 0.2 µg/mL (≈ 0.545 µM).

For the molecule `CC1=C(C(=O)O)N2C(=O)C(NC(=O)C(O)c3cccs3)C2SC1` (centres unmarked) [cited compound (2), 3-Methyl-7-[2-hydroxy-2-(2-thienyl)acetamido]-3-cephem-4-carboxylic acid (sodium salt), reference compound], the MIC in assay [1] was 6.25 µg/mL; in assay [2] it was 12.5 µg/mL; in assay [3] (setting [8]), 6.25 µg/mL; in assay [4] it was 12.5 µg/mL; in assay [5] it was 12.5 µg/mL; in assay [6] it was 25 µg/mL. Further, the MIC in assay [7] (setting [9]) amounted to 1.56 µg/mL.

Take `CC1=C(C(=O)O)N2C(=O)C(NC(=O)CSc3ccccc3)C2SC1` (centres unmarked) [cited compound (9), 3-Methyl-7-(2-phenylthioacetamido)-3-cephem-4-carboxylic acid, reference compound]: the MIC in assay [1] amounted to 0.39 µg/mL (≈ 1.07 µM); in assay [2], 0.39 µg/mL (≈ 1.07 µM); in assay [3] (setting [8]), 0.39 µg/mL (≈ 1.07 µM); in assay [4] it was 0.39 µg/mL (≈ 1.07 µM); in assay [5] it was 1.56 µg/mL (≈ 4.28 µM); in assay [6], 0.78 µg/mL (≈ 2.14 µM). Further, the MIC in assay [7] (setting [9]) is 0.39 µg/mL (≈ 1.07 µM).

As for `CC1=C(C(=O)O)N2C(=O)C(NC(=O)Cc3ccccc3)[C@H]2SC1` (some centres unmarked) [cited compound (8), 3-Methyl-7-(2-phenylacetamido)-3-cephem-4-carboxylic acid, reference compound], the MIC in assay [1] stood at 6.25 µg/mL (≈ 18.8 µM); in assay [2] it was 3.13 µg/mL (≈ 9.42 µM); in assay [3] (209PJC1, 20 h, read-out: minimum inhibitory concentration (MIC)), 1.56 µg/mL (≈ 4.69 µM); in assay [4] it was 1.56 µg/mL (≈ 4.69 µM); in assay [5], 3.13 µg/mL (≈ 9.42 µM); in assay [6], 6.25 µg/mL (≈ 18.8 µM). Also, in assay [7] (ATCC6633, 20 h, read-out: minimum inhibitory concentration (MIC)), the MIC was determined as 0.78 µg/mL (≈ 2.35 µM).

In the case of `C=CCSCC(=O)NC1C(=O)N2C(C(=O)O)=C(C)CS[C@H]12` (some centres unmarked) [cited compound (14), 3-Methyl-7-[2-(allylthio)acetamido]-3-cephem-4-carboxylic acid, reference compound], the MIC is 6.25 µg/mL (≈ 19 µM) in assay [1]; 6.25 µg/mL (≈ 19 µM) in assay [2]; 6.25 µg/mL (≈ 19 µM) in assay [3] (setting [8]); 6.25 µg/mL (≈ 19 µM) in assay [4]; 6.25 µg/mL (≈ 19 µM) in assay [5]; 12.5 µg/mL (≈ 38.1 µM) in assay [6]. The MIC in assay [7] (setting [9]) came to 3.13 µg/mL (≈ 9.53 µM).

Regarding `CC1=C(C(=O)O)N2C(=O)C(NC(=O)Cc3cccnc3)[C@H]2SC1` (some centres unmarked) [cited compound (15), 3-Methyl-7-[2-(3-pyridyl)acetamido]-3-cephem-4-carboxylic acid, reference compound], the MIC in assay [1] worked out at 12.5 µg/mL (≈ 37.5 µM); in assay [2] it was 12.5 µg/mL (≈ 37.5 µM); in assay [3] (setting [8]) it was 6.25 µg/mL (≈ 18.7 µM); in assay [4], 6.25 µg/mL (≈ 18.7 µM); in assay [5] it was 12.5 µg/mL (≈ 37.5 µM); in assay [6], 25 µg/mL (≈ 75 µM). Further, the MIC in assay [7] (setting [9]) was found to be 1.56 µg/mL (≈ 4.68 µM).

As for `CC1=C(C(=O)O)N2C(=O)C(NC(=O)Cc3cccs3)[C@H]2SC1` (some centres unmarked) [cited compound (5), 3-Methyl-7-[2-(2-thienyl)acetamido]-3-cephem-4-carboxylic acid, reference compound], the MIC was found to be 3.13 µg/mL (≈ 9.25 µM) in assay [1]; 6.25 µg/mL (≈ 18.5 µM) in assay [2]; 3.13 µg/mL (≈ 9.25 µM) in assay [3] (setting [8]); 12.5 µg/mL (≈ 36.9 µM) in assay [4]; 12.5 µg/mL (≈ 36.9 µM) in assay [5]; 12.5 µg/mL (≈ 36.9 µM) in assay [6]. Further, in assay [7] (setting [9]), the MIC came to 0.78 µg/mL (≈ 2.3 µM).

Consider `CC1C=C(C(=O)O)N2C(=O)C(NC(=O)Cc3ccccc3)[C@H]2S1` (some centres unmarked) [Applicants' compound (8), 2-Methyl-7-(2-phenylacetamido)-3-cephem-4-carboxylic acid], for which the MIC in assay [1] came to 1.56 µg/mL (≈ 4.69 µM); in assay [2], 1.56 µg/mL (≈ 4.69 µM); in assay [3] (setting [8]), 0.78 µg/mL (≈ 2.35 µM); in assay [3] (setting [10]), 0.78 µg/mL (≈ 2.35 µM); in assay [4], 3.13 µg/mL (≈ 9.42 µM); in assay [5], 1.56 µg/mL (≈ 4.69 µM). Also, the results for the MIC in assay [6], in assay [7] (setting [11]) and in assay [7] (setting [9]) were 1.56 µg/mL (≈ 4.69 µM), 0.2 µg/mL (≈ 0.602 µM) and 0.2 µg/mL (≈ 0.602 µM), respectively.

`CC1C=C(C(=O)O)N2C(=O)C(NC(=O)CSc3nncs3)[C@H]2S1` (some centres unmarked) [Applicants' compound (11), 2-Methyl-7-[2-(1,3,4-thiadiazol-2-ylthio)acetamido]-3-cephem-4-carboxylic acid]: the MIC in assay [1] stood at 3.13 µg/mL (≈ 8.4 µM); in assay [2] it was 6.25 µg/mL (≈ 16.8 µM); in assay [3] (setting [8]), 1.56 µg/mL (≈ 4.19 µM); in assay [3] (setting [10]) it was 1.56 µg/mL (≈ 4.19 µM); in assay [4] it was 3.13 µg/mL (≈ 8.4 µM); in assay [5], 3.13 µg/mL (≈ 8.4 µM). Moreover, the results for the MIC in assay [6], in assay [7] (setting [11]) and in assay [7] (setting [9]) were 6.25 µg/mL (≈ 16.8 µM), 0.78 µg/mL (≈ 2.09 µM) and 0.78 µg/mL (≈ 2.09 µM), respectively.

For the molecule `CC1C=C(C(=O)O)N2C(=O)C(NC(=O)Cc3csc(N)n3)[C@H]2S1` (some centres unmarked) [Applicants' compound (17), 2-Methyl-7-[2-(2-aminothiazol-4-yl)acetamido]-3-cephem-4-carboxylic acid], the MIC in assay [1] came out at 3.13 µg/mL (≈ 8.83 µM); in assay [2], 1.56 µg/mL (≈ 4.4 µM); in assay [3] (setting [8]), 1.56 µg/mL (≈ 4.4 µM); in assay [4], 1.56 µg/mL (≈ 4.4 µM); in assay [5], 1.56 µg/mL (≈ 4.4 µM); in assay [6], 1.56 µg/mL (≈ 4.4 µM). The MIC in assay [7] (setting [9]) is 3.13 µg/mL (≈ 8.83 µM).
